Data reported in patent publication US20130295115A1, “COMPOSITIONS AND METHODS FOR TREATING […]” (priority 2010, published 2013).

Test system: VSV
Assay type: cell-based, Vesicular Stomatitis Virus

Ammonium Iron(III) Citrate was tested, and the VSV binding was “no affect”.
